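A five-concentration, 48-hour dose response in 96-well plates underlies each endpoint, interpolated linearly between surrounding concentrations. GI50: concentration for 50% inhibition of growth. TGI: concentration producing complete growth inhibition.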
Columns and labels:
Assay in all cases: growth of human tumour cells (NCI), 48 h
HT29 colon = test system: HT29 colon
SF-295 CNS = test system: SF-295 CNS
KM12 colon = test system: KM12 colon
NCI-H460 lung = test system: NCI-H460 lung
TK-10 renal = test system: TK-10 renal
SK-MEL-28 melanoma = test system: SK-MEL-28 melanoma
SF-268 CNS = test system: SF-268 CNS
K-562 leukemia = test system: K-562 leukemia
UACC-62 melanoma = test system: UACC-62 melanoma
SW-620 colon = test system: SW-620 colon
SR leukemia = test system: SR leukemia
UO-31 renal = test system: UO-31 renal
SK-OV-3 ovarian = test system: SK-OV-3 ovarian
U251 CNS = test system: U251 CNS
RXF 393 renal = test system: RXF 393 renal
CCRF-CEM leukemia = test system: CCRF-CEM leukemia
HOP-92 NSCLC = test system: HOP-92 NSCLC
SN12C renal = test system: SN12C renal
RPMI-8226 leukemia = test system: RPMI-8226 leukemia
SNB-75 CNS = test system: SNB-75 CNS
MOLT-4 leukemia = test system: MOLT-4 leukemia
BT-549 breast = test system: BT-549 breast
ACHN renal = test system: ACHN renal
CAKI-1 renal = test system: CAKI-1 renal
SF-539 CNS = test system: SF-539 CNS
OVCAR-4 ovarian = test system: OVCAR-4 ovarian
MALME-3M melanoma = test system: MALME-3M melanoma
NCI-H23 lung = test system: NCI-H23 lung
HL-60(TB) leukemia = test system: HL-60(TB) leukemia
NCI/ADR-RES ovarian = test system: NCI/ADR-RES ovarian
OVCAR-8 ovarian = test system: OVCAR-8 ovarian
OVCAR-3 ovarian = test system: OVCAR-3 ovarian
A498 renal = test system: A498 renal
NCI-H226 lung = test system: NCI-H226 lung
COLO 205 colon = test system: COLO 205 colon
EKVX NSCLC = test system: EKVX NSCLC
786-0 renal = test system: 786-0 renal
HCT-15 colon = test system: HCT-15 colon
PC-3 prostate = test system: PC-3 prostate
MDA-MB-435 = test system: MDA-MB-435
SNB-19 CNS = test system: SNB-19 CNS
MCF7 breast = test system: MCF7 breast
SK-MEL-5 melanoma = test system: SK-MEL-5 melanoma
HCC-2998 colon = test system: HCC-2998 colon
T-47D breast = test system: T-47D breast
A549 NSCLC = test system: A549 NSCLC
LOX IMVI melanoma = test system: LOX IMVI melanoma
MDA-MB-468 breast = test system: MDA-MB-468 breast
IGROV1 ovarian = test system: IGROV1 ovarian
SK-MEL-2 melanoma = test system: SK-MEL-2 melanoma
HS 578T breast = test system: HS 578T breast
HCT-116 colon = test system: HCT-116 colon
OVCAR-5 ovarian = test system: OVCAR-5 ovarian
DU-145 prostate = test system: DU-145 prostate
UACC-257 melanoma = test system: UACC-257 melanoma
HOP-62 NSCLC = test system: HOP-62 NSCLC
NCI-H522 lung = test system: NCI-H522 lung
MDA-MB-231 breast = test system: MDA-MB-231 breast
M14 melanoma = test system: M14 melanoma

## CC1(C)CC[C@]2(C(=O)O)CC[C@]3(C)C(=CCC4[C@@]5(C)C[C@@H](O)[C@@H]6OC(c7ccc(F)cc7)OC[C@@]6(C)C5CC[C@]43C)C2C1 (stereo partly drawn)
HT29 colon
  GI50: 5.09 µM
  TGI: 30.3 µM
SF-295 CNS
  GI50: 3.57 µM
  TGI: 15.9 µM
KM12 colon
  GI50: 4.2 µM
  TGI: 18.9 µM
NCI-H460 lung
  GI50: 4.38 µM
  TGI: 18.1 µM
TK-10 renal
  GI50: 10.1 µM
  TGI: > 100 µM
SK-MEL-28 melanoma
  GI50: 12.5 µM
  TGI: 25.4 µM
SF-268 CNS
  GI50: 5.3 µM
  TGI: > 100 µM
K-562 leukemia
  GI50: 2.26 µM
  TGI: > 100 µM
UACC-62 melanoma
  GI50: 11.4 µM
  TGI: 24.3 µM
SW-620 colon
  GI50: 6.54 µM
  TGI: 30.3 µM
SR leukemia
  GI50: 4.18 µM
  TGI: 37 µM
UO-31 renal
  GI50: 4.17 µM
  TGI: 21.7 µM
SK-OV-3 ovarian
  GI50: 11.6 µM
  TGI: 39.2 µM
U251 CNS
  GI50: 3.54 µM
  TGI: 17 µM
RXF 393 renal
  GI50: 6.66 µM
  TGI: 20.5 µM
CCRF-CEM leukemia
  GI50: 3.58 µM
  TGI: 25.8 µM
HOP-92 NSCLC
  GI50: 5.32 µM
  TGI: 27.6 µM
SN12C renal
  GI50: 7.55 µM
  TGI: 30.2 µM
RPMI-8226 leukemia
  GI50: 4.35 µM
  TGI: > 100 µM
SNB-75 CNS
  GI50: 2.05 µM
  TGI: 45.3 µM
MOLT-4 leukemia
  GI50: 2.64 µM
  TGI: 12 µM
BT-549 breast
  GI50: 4.34 µM
  TGI: 17.9 µM
ACHN renal
  GI50: 3.56 µM
  TGI: 32.5 µM
CAKI-1 renal
  GI50: 9.28 µM
  TGI: 26.3 µM
SF-539 CNS
  GI50: 6.71 µM
  TGI: 21.3 µM
OVCAR-4 ovarian
  GI50: 5.63 µM
  TGI: 38.4 µM
MALME-3M melanoma
  GI50: 8.39 µM
  TGI: 22.9 µM
NCI-H23 lung
  GI50: 4.95 µM
  TGI: 21.1 µM
HL-60(TB) leukemia
  GI50: 2.29 µM
  TGI: 6.41 µM
NCI/ADR-RES ovarian
  GI50: 4.3 µM
  TGI: 22.8 µM
OVCAR-8 ovarian
  GI50: 6.96 µM
  TGI: 40.2 µM
OVCAR-3 ovarian
  GI50: 4.13 µM
  TGI: 18.8 µM
A498 renal
  GI50: 5.41 µM
  TGI: 20.1 µM
NCI-H226 lung
  GI50: 3.96 µM
  TGI: 23.5 µM
COLO 205 colon
  GI50: 4.53 µM
  TGI: 17.9 µM
EKVX NSCLC
  GI50: 3.14 µM
  TGI: 15.3 µM
786-0 renal
  GI50: 7.56 µM
  TGI: 27.5 µM
HCT-15 colon
  GI50: 2.42 µM
  TGI: 11.6 µM
PC-3 prostate
  GI50: 4.18 µM
  TGI: > 100 µM
MDA-MB-435
  GI50: 10.8 µM
  TGI: 23.7 µM
SNB-19 CNS
  GI50: 7.35 µM
  TGI: > 100 µM
MCF7 breast
  GI50: 4.03 µM
  TGI: 28.2 µM
SK-MEL-5 melanoma
  GI50: 4.13 µM
  TGI: 16.2 µM
HCC-2998 colon
  GI50: 4.34 µM
  TGI: 14.8 µM
T-47D breast
  GI50: 11.8 µM
  TGI: 95.9 µM
A549 NSCLC
  GI50: 2.81 µM
  TGI: 16.5 µM
LOX IMVI melanoma
  GI50: 4.13 µM
  TGI: 16.2 µM
MDA-MB-468 breast
  GI50: 3.26 µM
  TGI: 19.5 µM
IGROV1 ovarian
  GI50: 7.62 µM
  TGI: 24.9 µM
SK-MEL-2 melanoma
  GI50: 9.47 µM
  TGI: 24.2 µM
HS 578T breast
  GI50: 5.56 µM
  TGI: 48.5 µM
HCT-116 colon
  GI50: 3.5 µM
  TGI: 13.7 µM
OVCAR-5 ovarian
  GI50: 13.3 µM
  TGI: 33.5 µM
DU-145 prostate
  GI50: 5.23 µM
  TGI: > 100 µM
UACC-257 melanoma
  GI50: 10.9 µM
  TGI: 31 µM
HOP-62 NSCLC
  GI50: 6.68 µM
  TGI: 29.6 µM
NCI-H522 lung
  GI50: 5.21 µM
  TGI: 23.8 µM
MDA-MB-231 breast
  GI50: 13 µM
  TGI: 28.7 µM
M14 melanoma
  GI50: 10.7 µM
  TGI: 27 µM
